Data as given in US10322995B2, “Substituted cyano cycloalkyl penta-2,4-dienes, cyano cycloalkyl pent-2-en-4-ynes, cyano heterocyclyl penta-2,4-dienes and cyano heterocyclyl pent-2-en-4-ynes as active substances against abiotic plant stress” (BAYER CROPSCIENCE AKTIENGESELLSCHAFT, priority 2014, dated 2019).

Legend:
[1] = test system: Triticum aestivum (TRZAS); assay: In vivo analyses Part C: drought stress, appearance vs stressed control plants in categories (TRZAS); design: key: 0: no positive effect; 10: slight positive effect; 20: clear positive effect; 30: strong positive effect; conditions: appearance vs stressed control plants after recovery phase, efficacy range of 3-4 pots
Procedure: Seeds of monocotyledonous and dicotyledonous crop plants were sown in sandy loam in plastic or wood-fibre pots, covered with soil or sand and cultivated in a greenhouse under good growth conditions. The test plants were treated at the early leaf stage (BBCH10-BBCH13). To assure uniform water supply before commencement of stress, the potted plants were supplied with water by dam irrigation prior to substance application. The inventive compounds were first formulated as wettable powders (WP) or dissolved in a solvent mixture. The further dilution was effected with water supplemented with 0.2% wetting agent (e.g. agrotin). The finished spray liquor was sprayed onto the green parts of the plant at an equivalent water application rate of 600 I/ha. Substance application was followed immediately by stress treatment of the plants. For this purpose, the wood-fibre pots were transferred in plastic inserts in order to prevent them from subsequently drying out too quickly. Drought stress was induced by gradual drying out under the following conditions: “Day”: 14 hours with illumination at 26-30° C. “Night”: 10 hours without illumination at 18-20° C. The duration of the respective stress phases was guided mainly by the condition of the stressed control plants. It was ended (by re-irrigating and transfer to a greenhouse with good growth conditions) as soon as irreversible damage was observed on the stressed control plants. The end of the stress phase was followed by an about 4-7-day recovery phase, during which the plants were once again kept under good growth conditions in a greenhouse. The duration of the recovery phase was guided mainly by when the trial plants had attained a state which enabled visual scoring of potential effects, and was therefore variable. Once this juncture had been reached, the appearance of the plants treated with test substances was recorded in comparison to the stressed control plants by the following categories: [table] For each substance and dosage, 3-4 pots were treated and evaluated. TRZAS=Triticum aestivum

[2] = biological target: T1, phosphatase ABI1 via the co-regulator RCAR11/PYR1 (Arabidopsis thaliana, UniProt O49686+P49597); assay: In vitro assay: inhibition of the phosphatase ABI1 via the co-regulator RCAR11/PYR1, MUP dephosphorylation, fluorescence; assay type: biochemical; design: inhibition: dose or concentration left out as unconfirmed; conditions: MUP dephosphorylation, fluorescence 460 nm; for ABI1 inhibition: concentration of 5 mM of the substance in a solution of DMSO and water; for inhibition: read-out: ABI1 inhibition
T1 sequence (O49686 1-191): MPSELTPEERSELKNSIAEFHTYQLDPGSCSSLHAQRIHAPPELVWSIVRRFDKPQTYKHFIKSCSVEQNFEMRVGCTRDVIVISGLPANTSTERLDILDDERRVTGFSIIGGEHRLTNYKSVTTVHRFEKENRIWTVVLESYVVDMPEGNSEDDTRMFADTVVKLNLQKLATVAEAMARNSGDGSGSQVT
T1 sequence (P49597 1-434): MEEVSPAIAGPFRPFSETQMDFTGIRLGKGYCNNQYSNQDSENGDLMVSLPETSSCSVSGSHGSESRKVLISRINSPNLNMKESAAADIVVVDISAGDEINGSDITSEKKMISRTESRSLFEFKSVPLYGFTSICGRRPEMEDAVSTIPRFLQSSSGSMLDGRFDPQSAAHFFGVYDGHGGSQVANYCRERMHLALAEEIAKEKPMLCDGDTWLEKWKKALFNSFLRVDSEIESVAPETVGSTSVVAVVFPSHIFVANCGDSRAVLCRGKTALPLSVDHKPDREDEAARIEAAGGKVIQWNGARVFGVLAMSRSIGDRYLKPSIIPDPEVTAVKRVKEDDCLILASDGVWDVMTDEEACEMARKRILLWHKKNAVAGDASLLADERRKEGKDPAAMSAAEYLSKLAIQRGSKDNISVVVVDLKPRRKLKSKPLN
Source text: Effects of the phytohormone abscisic acid (ABA) on the behaviour of plants under abiotic stress and the mechanism of action of ABA are described in the literature (cf. Abrams et al, WO97/23441, Cutler, Park et al. Science, 2009, 324, 1068; Grill et al. Science, 2009, 324, 1064; Tanokura et al. Biophysics, 2011, 7, 123; Schroeder et al. Plant J. 2010, 61, 290). Therefore, it is possible with the aid of a suitable in vitro test system to derive a correlation between the action of ABA and the stress response of a plant under abiotic stress. Under drought stress, plants form the phytohormone abscisic acid (ABA). This binds, along with a co-regulator (Regulatory Component of ABA-Receptor=RCAR according to Grill et al. Science, 2009, 324, 1064 or PYR/PYL according to Cutler et al. Science, 2009, 324, 1068), to a phosphatase (e.g. ABI1, a type 2C protein phosphatase, also abbreviated to PP2C) and inhibits its activity. As a result, a “downstream” kinase (e.g. SnRK2) is no longer dephosphorylated. This kinase, which is thus active, via phosphorylation of transcription factors (e.g. AREB/ABF, vgl. Yoshida et al., Plant J. 2010, 61, 672), switches on a genetic protection programme to increase drought stress tolerance.
The assay described hereinafter utilizes the inhibition of the phosphatase ABI1 via the co-regulator RCAR11/PYR1 aus Arabidopsis thaliana.
For the determination of activity, the dephosphorylation of 4-methylumbelliferyl phosphate (MUP) was measured at 460 nm. The in vitro assay was conducted in Greiner 384-well PS microplates F-well, using two controls: a) dimethyl sulphoxide (DMSO) 0.5% (f.c.) and b) 5 μM (f.c.) abscisic acid (ABA). […] The substance solution thus obtained, if necessary, was stirred with esterase from porcine liver (EC 3.1.1.1) at room temperature for 3 h and centrifuged at 4000 rpm for 30 min. A total volume of 45 μl was introduced into each cavity of the microplate, having the following composition: • 1) 5 μl of substance solution, i.e. a) DMSO 5% or b) abscisic acid solution or c) the corresponding example compound of the general formula (I) dissolved in 5% DMSO. • 2) 20 μl of enzyme buffer mix, composed of a) 40% by vol. of enzyme buffer (10 ml contain equal proportions by volume of 500 mM Tris-HCl pH8, 500 mM NaCl, 3.33 mM MnCl2, 40 mM dithiothreitol (DTT)), b) 4% by vol. of ABI1 dilution (protein stock solution was diluted so as to give, after addition, a final concentration in the assay of 0.15 μg ABI1/well), c) 4% by vol. of RCAR11 dilution (enzyme stock was diluted so as to give, on addition of the dilution to the enzyme buffer mix, a final concentration in the assay of 0.30 μg enzyme/well), d) 5% by vol. of Tween20 (1%), e) 47% by vol. H2O bi-dist. • 3) 20 μl of substrate mix, composed of a) 10% by vol. of 500 mM Tris-HCl pH8, b) 10% by vol. of 500 mM NaCl, c) 10% by vol. of 3.33 mM MnCl2, d) 5% by vol. of 25 mM MUP, 5% by vol. of Tween20 (1%), 60% by vol. of H2O bi-dist.
Enzyme buffer mix and substrate mix were made up 5 minutes prior to the addition and warmed to a temperature of 35° C. On completion of pipetting of all the solutions and on completion of mixing, the plate was incubated at 35° C. for 20 minutes. Finally, a relative fluorescence measurement was made at 35° C. with a BMG Labtech “POLARstar Optima” microplate reader using a 340/10 nm excitation filter and a 460 nm emission filter. The efficacy of the compounds of the general formula (I) is reported in the table which follows using abscisic acid (No. 64) as comparative substance according to the following classification: ++++ (inhibition≥90%), +++ (90%>inhibition≥70%), ++ (70%>inhibition≥50%), +(50%>inhibition≥30%).
Effects of selected compounds of the general formula (I) in the above-described in vitro assay at a concentration of 5 mM of the substance of the general formula (I) in question in a solution of DMSO and water: […]

Brassica napus (BRSNS) = assay: In vivo analyses Part B: drought stress, appearance vs stressed control plants in categories (BRSNS); design: key: 0: no positive effect; 10: slight positive effect; 20: clear positive effect; 30: strong positive effect; conditions: category vs stressed control plants, 2-3 pots
Procedure: Seeds of monocotyledonous and dicotyledonous crop plants were sown in sandy loam in plastic pots, covered with soil or sand and cultivated in a greenhouse under good growth conditions. The test plants were treated at the early leaf stage (BBCH10-BBCH13). To assure uniform water supply before commencement of stress, the potted plants were supplied with water by dam irrigation prior to substance application. The inventive compounds, formulated in the form of wettable powders (WP), were sprayed onto the green parts of the plants as an aqueous suspension at an equivalent water application rate of 600 I/ha with addition of 0.2% wetting agent (e.g. agrotin). Substance application was followed immediately by stress treatment of the plants. Drought stress was induced by gradual drying out under the following conditions: “Day”: 14 hours with illumination at 26-30° C. “Night”: 10 hours without illumination at 18-20° C. The duration of the respective stress phases was guided mainly by the condition of the stressed control plants. It was ended (by re-irrigating and transfer to a greenhouse with good growth conditions) as soon as irreversible damage was observed on the stressed control plants. The end of the stress phase was followed by an about 4-7-day recovery phase, during which the plants were once again kept under good growth conditions in a greenhouse. The duration of the recovery phase was guided mainly by when the trial plants had attained a state which enabled visual scoring of potential effects, and was therefore variable. Once this juncture had been reached, the appearance of the plants treated with test substances was recorded in comparison to the stressed control plants by the following categories: [table] In order to rule out any influence on the effects observed by any fungicidal or insecticidal action of the test compounds, it was additionally ensured that the tests proceeded without fungal infection or insect infestation. For each substance and dosage, 2-3 pots were treated and evaluated. BRSNS=Brassica napus

SMILES | ABI1 inhibition [2] | Effect (TRZAS) ([1]; dosage 25 g/ha) | further results
CCC(C#CC(O)(C1(C#N)CC1)C12CC3CC(CC(C3)C1)C2)=CC(=O)OC (racemic) [I.1-738] | – | 10 | –
COC(=O)C=C(C#CC(O)(C1(C#N)CC1)C12CC3CC(CC(C3)C1)C2)C(F)(F)F (racemic) [I.1-752] | – | 10 | –
CCOC(=O)C=C(C#CC(O)(C1(C#N)CC1)C12CC3CC(CC(C3)C1)C2)C(F)(F)F (racemic) [I.1-753] | – | 10 | –
CCOC(=O)C=C(C)C#CC(O)(C1(C#N)CC1)C12CC3CC(CC(C3)C1)C2 (racemic) [I.1-762] | – | – | Effect (TRZAS) ([1]; dosage 250 g/ha): 10
CCOC(=O)C=C(C=CC(O)(C(C)C)C1(C#N)CC1)CC (racemic) [I.2-103] | – | – | Effect (TRZAS) ([1]; dosage 250 g/ha): 30
CC/C(C#CC(O)(C(C)C)C1(C#N)CC1)=C/C(=O)NC1CC1 (centres unmarked) [I.1-157, (2Z)-6-(1-Cyanocyclopropyl)-N-cyclopropyl-3-ethyl-6-hydroxy-7-methyloct-2-en-4-ynamide] | – | 10 | –
CCOC(=O)/C=C(\C#CC(O)(c1ccc(F)cc1)C1(C#N)CC1)CC (centres unmarked) [I.1-503, Ethyl (2Z)-6-(1-cyanocyclopropyl)-3-ethyl-6-(4-fluorophenyl)-6-hydroxyhex-2-en-4-ynoate] | – | – | Effect (BRSNS) (Brassica napus (BRSNS); spray application 25 g/ha): 20-30; inhibition [2]: > 90%
CC/C(C#CC(O)(C(C)C)C1(C#N)CC1)=C/C(=O)OCCOC (centres unmarked) [I.1-606, 2-Methoxyethyl (2Z)-6-(1-cyanocyclopropyl)-3-ethyl-6-hydroxy-7-methyloct-2-en-4-ynoate] | – | – | Effect (BRSNS) (Brassica napus (BRSNS); spray application 250 g/ha): 20; inhibition [2]: > 90%
COC(=O)/C=C(\C=C\C(O)(C(C)C)C1(C#N)CC1)C(F)(F)F (centres unmarked) [I.2-120, Methyl (2E,4E)-6-(1-cyanocyclopropyl)-6-hydroxy-7-methyl-3-(trifluoro-methyl)octa-2,4-dienoate] | – | – | Effect (BRSNS) (Brassica napus (BRSNS); spray application 250 g/ha): 30; inhibition [2]: > 90%

The next lines start with results.

ABI1 inhibition [2] | SMILES | Effect (TRZAS) ([1]; dosage 25 g/ha) | further results
++++ (inhibition≥90%) | CCOC(=O)C=C(C)C#CC(O)(C(CC)CC)C1(C#N)CC1 (racemic) [I.1-732] | 10 | –
++++ (inhibition≥90%) | CC/C(C#CC(O)(c1ccc(F)cc1)C1(C#N)CC1)=C/C(=O)OCCOC (centres unmarked) [I.1-614] | – | Effect (BRSNS) (Brassica napus (BRSNS); spray application 250 g/ha): 10-20
++++ (inhibition≥90%) | COC(=O)/C=C(\C#CC(O)(C1CCC1)C1(C#N)CC1)C(F)(F)F (centres unmarked) [I.1-662] | 10-20 | –
++++ (inhibition≥90%) | CCOC(=O)/C=C(/C)C#CC(O)(C1CCCCC1)C1(C#N)CC1 (centres unmarked) [I.1-702] | – | Effect (TRZAS) ([1]; dosage 250 g/ha): 10
